The nature of assay [1]: A cytotoxicity screen of small molecule inhibitors of the PhoP region in Salmonella typhi identified in the primary screen. [Related pubchem assays: 1850, 1864, 1985 ]. Format: functional.
Assay [2] deals with Neuropeptide Y receptor type 2 (Homo sapiens, UniProt P49146). Nature of the assay: Fluorescence-based cell-based high-throughput dose response assay for agonists of NPY-Y2. [Related pubchem assays: 1703 (Screening assay (CNGC inhibitors).), 1359 (Screening assay (NPY-Y2 potentiators or agonists).), 1304 (Screening assay (NPY-Y1 potentiators or agonists).), 1710 (Screening assay (NPY-Y2 agonists).), 1791 (Summary AID.)]. In kind it is functional.

The target in assay [3] is Neuropeptide Y receptor type 1 (Homo sapiens, UniProt P25929). As to the kind of experiment: Fluorescence-based counterscreen for agonists of NPY-Y2: cell-based high-throughput dose response assay for agonists of NPY-Y1. In kind it is functional.
The test system of assay [4] is HEK293. As to the kind of experiment: Fluorescence-based counterscreen for potentiators or agonists of NPY-Y2: cell-based high-throughput dose response assay to identify inhibitors of cyclic nucleotide gated ion channel (CNGC) activity. In this assay, the parental HEK293 cell line transfected with a cyclic-nucleotide gated ion channel (CNGC)-based cAMP sensor is used to measure inhibition of isoproterenol-induced CNGC activity by test compound. In kind it is functional. The conditions noted are these: Homo sapiens. (Counterscreens check selectivity or assay interference.)

Assay [5] can be described thus: cytotoxicity toward NIH3T3 fibroblasts, dose response, counter-screen, cell-based, ATP luminescence, mouse fibroblasts (AID 2010).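 Note: cells exposed to compound for about 90 hours before reading.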 Format: functional.
Assay [6] in a line: cells. In kind it is functional, cell-based.
Assay [7] can be described thus: cells. In kind it is functional, cell-based. The source holds these as a separate data set.
A further assay concerns INS1. Nature of the assay: beta cell apoptosis inhibitors, cytokine rescue, dose response, luminescence, retest (AID 449756).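 Note: cell death triggered by IL-1 beta plus TNF-alpha plus IFN-gamma mixture; protective hits raise ATP signal compared with cytokine alone wells.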 To be noted: Rattus norvegicus. Format: functional, cell-based.
For the next assay, the target named is T1, Streptokinase A (Streptococcus pyogenes serotype M1, UniProt P10520).
T1 sequence (P10520 whole entry): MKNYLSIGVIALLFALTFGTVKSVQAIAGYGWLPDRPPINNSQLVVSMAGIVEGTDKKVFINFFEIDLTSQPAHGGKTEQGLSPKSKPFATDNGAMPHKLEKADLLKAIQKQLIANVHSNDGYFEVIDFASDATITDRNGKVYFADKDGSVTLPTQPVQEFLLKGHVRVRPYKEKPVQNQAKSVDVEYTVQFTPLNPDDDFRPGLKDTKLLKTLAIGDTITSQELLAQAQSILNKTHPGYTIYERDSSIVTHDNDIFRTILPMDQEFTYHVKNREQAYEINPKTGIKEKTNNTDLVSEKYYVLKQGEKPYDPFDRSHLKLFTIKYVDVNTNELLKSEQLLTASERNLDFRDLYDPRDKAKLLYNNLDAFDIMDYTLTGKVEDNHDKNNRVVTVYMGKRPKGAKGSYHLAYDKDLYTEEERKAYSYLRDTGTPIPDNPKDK
As to the kind of experiment: S. pyogenes streptokinase expression inhibitors, potency, dose response, plasminogen activation absorbance, OD405 (AID 1914).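 Note: secreted streptokinase activity via plasminogen activation per viability signal from cell pellet.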 In kind it is functional, Streptococcus pyogenes M1 GAS.

A short description of assay [8]: inhibitors of intracellular T. cruzi replication, confirmation, NIH3T3 host cells, beta-gal luminescence (AID 2044).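 Note: intracellular parasites grown in NIH/3T3 mouse fibroblasts as host cells; luminescent beta-galactosidase reporter signal from transgenic T. cruzi replicating inside host cells; inhibitors lower the luminescence signal.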 In kind it is functional, cell-based.
Assay [9] has as its system Streptococcus sp. 'group A'. As to the kind of experiment: growth inhibition of control SK(-) GAS strain, dose response, counter-screen for streptokinase expression inhibitor project, luminescence, kanamycin, BacTiterGlo, confirmation (AID 1900). Format: functional, organism-based.
A further assay has as its system Streptococcus. As to the kind of experiment: Group A Streptococcus viability loss, dose response, counter-screen for streptokinase expression inhibitor project, luminescence, BacTiterGlo (AID 1915).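 Note: potency for reduction of bacterial viability or growth.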 Format: functional, organism-based.
Assay [10] concerns HEK293. As to the kind of experiment: inhibitors of LMP1-driven NF-kB reporter, dose response, cell-based, HEK293, luciferase, cherry-pick (AID 588343). The conditions noted are these: Homo sapiens. In kind it is functional.
Assay [11] can be described thus: Luminescence-based counterscreen assay for KLF5 inhibitors: dose response cell-based high throughput screening assay to identify cytotoxic compounds using the IEC-6 intestinal epithelial cell line. [Related pubchem assays: 1700 (Primary screen.), 1834 (Confirmation screen.), 1858 (Summary AID.), 1905 (Counterscreen.)]. Format: functional.
In assay [12] the test system is HEK293. Nature of the assay: cells. Format: functional, cell-based. The conditions noted are these: Homo sapiens.
For assay [13], the system named is HEK293. Nature of the assay: cells. Format: functional, cell-based. The conditions noted are these: Homo sapiens. The source holds these as a separate data set.
The test system of assay [14] is HEK293. As to the kind of experiment: cells. In kind it is functional, cell-based. To be noted: Homo sapiens. This is another data set of the same source.
The test system of assay [15] is HEK293. As to the kind of experiment: NOD1 signaling inhibitors, primary screen, cell-based, luminescence, uHTS (AID 1578). In kind it is functional. To be noted: Homo sapiens.
Assay [16] has as its target Nucleotide-binding oligomerization domain-containing protein 2 (Homo sapiens, UniProt Q9HC29). Nature of the assay: NOD2 signaling inhibitors, cell-based, luminescence, uHTS, HEK293 (AID 1566). Format: functional.
Assay [17] concerns HEK293. Nature of the assay: NOD2 signaling inhibitors in MDP-stimulated cells, cell-based, uHTS, luminescence (AID 2001). The conditions noted are these: Homo sapiens. In kind it is functional.

Molecules are shown by their SMILES. Active and inactive are the calls of the source.

Five compounds from ChEMBL document CHEMBL1201862, “PubChem BioAssay data set” (2004) can be followed below.

Neuropeptide Y receptor type 1, sequence (P25929 whole entry): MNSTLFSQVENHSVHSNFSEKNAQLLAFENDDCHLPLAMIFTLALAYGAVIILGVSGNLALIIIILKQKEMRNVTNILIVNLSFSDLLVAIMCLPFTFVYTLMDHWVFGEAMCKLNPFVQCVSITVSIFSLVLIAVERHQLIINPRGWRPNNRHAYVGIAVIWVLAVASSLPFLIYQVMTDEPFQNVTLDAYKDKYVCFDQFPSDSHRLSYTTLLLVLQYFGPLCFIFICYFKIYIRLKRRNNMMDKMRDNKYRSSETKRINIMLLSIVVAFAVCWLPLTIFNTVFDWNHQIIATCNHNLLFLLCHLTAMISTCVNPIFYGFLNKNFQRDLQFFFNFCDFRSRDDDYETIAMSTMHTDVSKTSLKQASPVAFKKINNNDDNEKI
Nucleotide-binding oligomerization domain-containing protein 2, sequence (Q9HC29 whole entry, the tested form may be a part): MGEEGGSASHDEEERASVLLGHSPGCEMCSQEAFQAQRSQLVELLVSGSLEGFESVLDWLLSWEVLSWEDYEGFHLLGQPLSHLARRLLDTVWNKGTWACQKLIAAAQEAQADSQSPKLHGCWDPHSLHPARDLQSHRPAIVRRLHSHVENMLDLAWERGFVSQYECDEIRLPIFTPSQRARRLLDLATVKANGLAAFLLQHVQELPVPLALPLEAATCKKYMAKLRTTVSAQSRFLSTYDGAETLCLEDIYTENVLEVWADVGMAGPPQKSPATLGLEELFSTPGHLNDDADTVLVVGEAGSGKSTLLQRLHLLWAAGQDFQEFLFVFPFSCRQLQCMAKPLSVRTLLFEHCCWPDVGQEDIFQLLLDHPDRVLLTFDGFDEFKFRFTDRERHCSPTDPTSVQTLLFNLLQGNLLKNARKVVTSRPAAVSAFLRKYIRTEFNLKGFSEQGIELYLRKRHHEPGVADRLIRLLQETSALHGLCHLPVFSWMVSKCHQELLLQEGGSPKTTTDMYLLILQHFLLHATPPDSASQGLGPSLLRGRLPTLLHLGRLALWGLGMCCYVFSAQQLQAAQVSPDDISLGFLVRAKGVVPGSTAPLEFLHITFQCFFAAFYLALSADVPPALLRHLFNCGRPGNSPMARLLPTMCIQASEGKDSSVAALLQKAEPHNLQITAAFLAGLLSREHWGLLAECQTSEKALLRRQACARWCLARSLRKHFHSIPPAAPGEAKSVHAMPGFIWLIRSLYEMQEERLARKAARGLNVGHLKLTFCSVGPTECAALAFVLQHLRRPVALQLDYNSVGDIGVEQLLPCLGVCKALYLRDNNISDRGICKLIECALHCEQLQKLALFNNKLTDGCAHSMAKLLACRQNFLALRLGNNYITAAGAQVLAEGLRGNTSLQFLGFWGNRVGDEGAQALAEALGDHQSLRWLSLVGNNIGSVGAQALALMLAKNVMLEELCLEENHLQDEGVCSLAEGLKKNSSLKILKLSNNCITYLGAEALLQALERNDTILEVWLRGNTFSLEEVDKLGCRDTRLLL
Neuropeptide Y receptor type 2, sequence (P49146 whole entry): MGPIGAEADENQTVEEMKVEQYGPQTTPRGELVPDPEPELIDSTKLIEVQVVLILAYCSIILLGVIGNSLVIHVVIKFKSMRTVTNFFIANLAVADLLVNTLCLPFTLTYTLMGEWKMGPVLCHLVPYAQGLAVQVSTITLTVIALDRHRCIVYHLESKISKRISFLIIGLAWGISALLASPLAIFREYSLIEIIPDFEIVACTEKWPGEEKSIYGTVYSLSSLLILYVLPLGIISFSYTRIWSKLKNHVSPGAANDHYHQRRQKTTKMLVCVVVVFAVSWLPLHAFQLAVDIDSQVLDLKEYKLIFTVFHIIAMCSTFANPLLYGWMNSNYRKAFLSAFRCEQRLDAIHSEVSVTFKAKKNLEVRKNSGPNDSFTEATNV

As a reminder, the EC50 is the concentration at which the effect is half-maximal. In the case of `Clc1ccc(Nc2nc(C3CC3)cs2)cc1`, the EC50 in assay [1] was > 50 µM (active).

Consider `CC(Nc1ccccc1)c1cccnc1` (configuration not stated), for which the EC50 (in [2]; in assay [3]; in the assay with HEK293 [4]) was > 35.4 µM (not active) throughout.

Take `CCc1nc(C)ccc1OCC(=O)N(CC)CC`: the EC50 in assay [1] is > 50 µM (active).

As a reminder, the AC50 is the concentration giving half of the maximal activity seen. One may read the IC50 as the concentration that inhibits the measured activity by half. `Cc1ccc2[nH]c(C(=O)N/N=C/c3ccccc3O)c(C)c2c1`: the EC50 in assay [5] was 6.55 µM (active); in “cells [6]”, > 350 µM (not active); in “cells [7]”, 6.86 µM (active); on Streptokinase A it was > 150 µM (not active); in [8], 0.564 µM (active); in assay [9] it was 1.63 µM (active). Also, the EC50 in the assay with Streptococcus is 3.86 µM (active). Also, the AC50 was 0.507 µM (active) in the assay with INS1 and 7.07 µM (active) with HEK293 [10]. In addition, in assay [11], the IC50 was 3.15 µM (active).

On to `Cc1cc(/C=N/Nc2nc(N)ncc2[N+](=O)[O-])c(C)n1-c1ccccc1F`, for which the IC50 in the assay on HEK293 [12] was > 20 µM (inactive); in the assay on HEK293 [13] it was > 20 µM (inactive); in the assay with HEK293 [14], 1.77 µM (active); in the assay with HEK293 [17], 6.02 µM (active); in [11], > 39.8 µM (not active). Moreover, the EC50 in the assay on HEK293 [15] was 4.64 µM (active); in assay [16], < 0.31 µM (inactive).
